From US20250171474A1, “CRYSTAL FORM OF […]” (Zhejiang Yangli Pharmaceutical Technology Co., Ltd., priority 2022, published 2025)

Key:
[1] = Animal weight change in the HepG2 orthotopic xenograft model; type: in vivo, Balb/C nude mice; conditions: 1 and 3 mg/kg IV
Description: (§1) The experimental indicator is whether the tumor growth can be delayed or whether the tumor can be cured. After tumor inoculation, the bioluminescence signal and animal weight were detected once a week, which continued until the end of the observation period. The bioluminescence signal value can be used to calculate T/C (wherein T is the administration group, and C is the average intensity value of bioluminescence of the blank control group at the set time). Calculation formula of tumor growth inhibition rate (TGI): TGI (%)=[1−(Ti−T0)/(Vi−V0)]×100, wherein Ti is the average intensity of bioluminescence of the treatment group at the set time; T0 is the average intensity of bioluminescence at the starting point of administration. Vi is the average intensity of bioluminescence of the blank control group at the set time; V0 is the average intensity of bioluminescence at the starting point of administration.

[2] = test system: HepG2 cells; assay: Anti-proliferative activity on HepG2 cell line (CellTiter-Glo); type: cell-based, human
Procedure: DMEM medium, penicillin/streptomycin antibiotics were purchased from Wisent, and fetal bovine serum was purchased from Biosera. CellTiter-Glo (chemiluminescent cell viability assay reagent) reagent was purchased from Promega. The HepG2 cell line was purchased from the Cell Bank of the Chinese Academy of Sciences. Nivo multimode microplate reader (PerkinElmer).
HepG2 cells (liver cancer) were seeded in a white 384-well plate with […] of cell suspension per well containing 1000 HepG2 cells. The cell plate was incubated overnight in a carbon dioxide incubator. The compound to be tested was 3-fold diluted to the ninth concentration with a multi-channel pipette, that is, the compound to be tested was diluted from 200 µM to 30 nM, and an experiment for the sample assayed in duplicate was set up. […] of culture medium was added to the middle plate. According to the corresponding position, […] per well of the gradient-diluted compound was transferred to the middle plate, then […] per well was transferred to the cell plate after mixing well. […] Another cell plate was prepared, and the signal value as the maximum value (Max value in the following equation) was read on the day of drug addition to participate in data analysis. […] A multimode microplate reader was used for reading. […] A multimode microplate reader was used for reading. […]

[3] = test system: HepG2-luc orthotopic xenograft tumor; assay: In vivo pharmacodynamics on orthotopic xenograft tumor model of human liver cancer HepG2; design: species or system Balb/C nude mice; conditions: for Bioluminescence (Day 1) / Bioluminescence (Day 21): mean, n=6 (Table 8); for Bioluminescence (Day 21) / RBL (Day 21), relative tumor signal growth value / T/C (%) (Day 21) / TGI (%) (Day 21) / T/Cweight (%) / Tumor weight (Day 21): Day 21; for T/Cweight (%): TWtreatment/TWvehicle; for Tumor weight (Day 21): mean ± SEM, n=6
Procedure: In this experiment, orthotopic xenograft tumor model of HepG2 in a nude mouse was used to evaluate the anti-tumor effect of the compound.
Female Balb/C nude mice, 6 to 8 weeks old, weighing 18 to 22 g, fetal bovine serum […], EMEM medium (Cat. No. 30-2003), phosphate buffer, Antibiotic-Antimycotic (Cat. No. 15240-062), Matrigel, and trypsin.
1. Preparation of cell culture: HepG2-luc cells were cultured in monolayer in vitro. The culture conditions were that 10% heat-inactivated fetal bovine serum was added to EMEM medium and the cells were cultured in an incubator containing 5% CO2 at 37° C. Digestion with trypsin-EDTA was performed twice a week for passaging. When the cell saturation was 80% to 90%, the cells were digested with trypsin-EDTA, counted, and resuspended in PBS and Matrigel (PBS: Matrigel=1:1), and the density was 166.67×10^6 cells/mL.
2. Tumor cell inoculation and grouping: Animals were anesthetized by intramuscular injection of 60 mg/kg Zoletil 50 and 1.5 mg/kg xylazine. When the animals were under deep anesthesia, the animals were properly fixed, and the abdomen skin was cleaned with 75% alcohol cotton balls. An incision of about 10 mm was cut with surgery, and 0.03 mL (PBS: Matrigel=1:1) of HepG2-luc cells was orthotopically inoculated on the left lobe of the liver of each mouse, and then the incision on the muscle layer was sutured with absorbable catgut, and the incision on the skin was sutured with a stapler. After surgery, the animals were kept warm on a warming blanket until they woke up. To relieve the pain of the animals, 2 mg/kg of meloxicam (administered subcutaneously once a day) would be administered for 3 consecutive days after surgery. 15 animals were randomly selected to detect the growth of the signal. When the signal began to rise, animals were randomly divided into groups according to the value of the bioluminescence signal, and the administration of the drug was started.
as §1
b. Tumor growth inhibition was calculated by T/Cweight=TWtreatment/TWvehicle.
c. The p values were obtained by analyzing the tumor weight using one-way ANOVA between the vehicle group and the treatment groups.

[4] = test system: Hep3B cells; assay: Anti-proliferative activity on Hep3B cell line (CellTiter-Glo); type: cell-based
Procedure: EMEM medium, penicillin/streptomycin antibiotics were purchased from Wisent, and fetal bovine serum was purchased from Biosera. CellTiter-Glo (chemiluminescent cell viability assay reagent) reagent was purchased from Promega. The Hep3B cell line was purchased from the Cell Bank of the Chinese Academy of Sciences. Nivo multimode microplate reader (PerkinElmer).
Hep3B cells (liver cancer) were seeded in a white 96-well plate with 80 μL of cell suspension per well containing 3000 Hep3B cells. The cell plate was incubated overnight in a carbon dioxide incubator. The compound to be tested was 5-fold diluted to the ninth concentration with a multi-channel pipette, that is, the compound to be tested was diluted from 2 mM to 5.12 nM, and an experiment for the sample assayed in duplicate was set up. 78 μL of culture medium was added to the middle plate. According to the corresponding position, 2 µL per well of the gradient-diluted compound was transferred to the middle plate, then 20 μL per well was transferred to the cell plate after mixing well. […] Another cell plate was prepared, and the signal value as the maximum value (Max value in the following equation) was read on the day of drug addition to participate in data analysis. […] A multimode microplate reader was used for reading. […] A multimode microplate reader was used for reading. […]

[5] = Group 2, 1 mg/kg IV Day 0, 7, 14
[6] = Group 3, 3 mg/kg IV Day 0, 7, 14

O=[N+]([O-])c1cc2c(cc1Oc1cccnc1F)[C@H](OP(=O)(N1CC1)N1CC1)COC2 [Compound of formula (I)]
animal weight in the administration group (in words) [1]: does not decrease significantly | anti-proliferative activity on HepG2 (in words) ([2]; HepG2 with high expression of AKR1C3): excellent anti-proliferative activity | IC50 ([2]; Homo sapiens, 120 h, HepG2 (high expression of AKR1C3), 5 days incubation): 7.4 nM | inhibitory effect on tumor growth (in words) ([3]; 1 mg/kg, after 21 days of administration): significant inhibitory effect on tumor growth | Bioluminescence (Day 1) [3, 5]: 3.51E+09 photons/second | Bioluminescence (Day 21) [3, 5]: 4.35E+09 photons/second | Bioluminescence signal value of tumor tissue ([3]; Group 2, 1 mg/kg IV, 0 days after administration (Table 10)): 1.47E+09 photons/second | Bioluminescence signal value of tumor tissue ([3]; Group 2, 1 mg/kg IV, 7 days after administration (Table 10)): 4.34E+09 photons/second | Bioluminescence signal value of tumor tissue ([3]; Group 2, 1 mg/kg IV, 14 days after administration (Table 10)): 4.76E+09 photons/second | Bioluminescence signal value of tumor tissue ([3]; Group 2, 1 mg/kg IV, 21 days after administration (Table 10)): 4.52E+09 photons/second | RBL (Day 21), relative tumor signal growth value ([3]; Group 2, 1 mg/kg IV): 0.98 | T/C (%) (Day 21) ([3]; Group 2, 1 mg/kg IV): 10.04% | TGI (%) (Day 21) ([3]; Group 2, 1 mg/kg IV): 96.97% | T/Cweight (%) ([3]; Group 2, 1 mg/kg IV): 15.80% | Tumor weight (Day 21) ([3]; Group 2, 1 mg/kg IV): 0.090 ± 0.036 g | Bioluminescence (Day 1) [3, 6]: 3.51E+09 photons/second | Bioluminescence (Day 21) [3, 6]: 1.81E+09 photons/second | Bioluminescence signal value of tumor tissue ([3]; Group 3, 3 mg/kg IV, 0 days after administration (Table 10)): 1.47E+09 photons/second | Bioluminescence signal value of tumor tissue ([3]; Group 3, 3 mg/kg IV, 7 days after administration (Table 10)): 2.77E+09 photons/second | Bioluminescence signal value of tumor tissue ([3]; Group 3, 3 mg/kg IV, 14 days after administration (Table 10)): 2.59E+09 photons/second | Bioluminescence signal value of tumor tissue ([3]; Group 3, 3 mg/kg IV, 21 days after administration (Table 10)): 2.16E+09 photons/second | RBL (Day 21), relative tumor signal growth value ([3]; Group 3, 3 mg/kg IV): 0.41 | T/C (%) (Day 21) ([3]; Group 3, 3 mg/kg IV): 4.22% | TGI (%) (Day 21) ([3]; Group 3, 3 mg/kg IV): 106.21% | T/Cweight (%) ([3]; Group 3, 3 mg/kg IV): 10.23% | Tumor weight (Day 21) ([3]; Group 3, 3 mg/kg IV): 0.058 ± 0.013 g | inhibitory effect on tumor growth (conclusion, in words) ([3]; HepG2 orthotopic model, 1 and 3 mg/kg IV): significant inhibitory effect on tumor growth | anti-tumor effect (in words) ([3]; dose increased to 3 mg/kg): significantly enhanced | anti-proliferative activity on Hep3B (in words) ([4]; Hep3B with low expression of AKR1C3): no anti-proliferative activity | IC50 ([4]; Homo sapiens, 72 h, Hep3B (low expression of AKR1C3), 3 days incubation): > 10000 nM
